Data as given in PMC5138414, “Structural Basis for Redox Regulation of Cytoplasmic and Chloroplastic Triosephosphate Isomerases from Arabidopsis thaliana” (Frontiers in Plant Science, 2016).
pIC50: −log10 of the molar value.

How the values were obtained:
Experiment in all cases: residual activity after MMTS incubation, coupled assay at […] nm
Assay type in all cases: biochemical
[1] = biological target: T1, cTPI (Arabidopsis thaliana, UniProt P48491, C218S); conditions: read-out: MMTS concentration necessary to inhibit 50%
T1 construct: gene CTIMC; homodimer
T1 sequence (P48491 1-254 C218S): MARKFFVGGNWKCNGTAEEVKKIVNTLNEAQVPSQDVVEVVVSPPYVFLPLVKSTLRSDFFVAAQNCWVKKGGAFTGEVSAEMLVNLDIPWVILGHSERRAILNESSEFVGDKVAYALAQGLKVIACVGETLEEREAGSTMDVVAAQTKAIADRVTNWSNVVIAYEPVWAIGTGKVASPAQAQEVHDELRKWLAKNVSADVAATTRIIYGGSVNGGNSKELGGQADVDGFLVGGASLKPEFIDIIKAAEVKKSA

[2] = biological target: T2, cTPI (Arabidopsis thaliana, UniProt P48491); conditions: covalent (C13, C218); 3 h incubation at room temperature, 0.184 nM enzyme, TEA pH 7.4, 10 mM EDTA
T2 construct: gene CTIMC; homodimer

[3] = biological target: T3, cTPI (Arabidopsis thaliana, UniProt P48491, C13S)
T3 construct: gene CTIMC; homodimer

[4] = biological target: T4, pdTPI (Arabidopsis thaliana, UniProt Q9SKP6); conditions: read-out: 50% of enzymatic activity
T4 construct: gene TIM; homodimer
Target sequence in this assay (Q9SKP6 60-315): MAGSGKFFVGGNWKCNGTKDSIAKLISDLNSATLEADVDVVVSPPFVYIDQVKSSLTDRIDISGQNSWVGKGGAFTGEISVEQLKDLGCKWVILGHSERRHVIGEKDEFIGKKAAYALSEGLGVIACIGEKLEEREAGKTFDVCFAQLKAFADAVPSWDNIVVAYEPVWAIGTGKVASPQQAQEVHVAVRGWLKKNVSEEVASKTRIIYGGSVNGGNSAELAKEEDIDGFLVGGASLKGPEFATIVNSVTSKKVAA

[5] = biological target: T4, pdTPI; conditions: covalent (cysteine); 3 h incubation at room temperature, 0.184 nM enzyme, TEA pH 7.4, 10 mM EDTA; MMTS 0-50 µM
Target sequence in this assay (Q9SKP6 60-315 C148S): as the sequence (Q9SKP6 60-315) above, with C89S counted along it

T3 sequence (P48491 whole entry C13S): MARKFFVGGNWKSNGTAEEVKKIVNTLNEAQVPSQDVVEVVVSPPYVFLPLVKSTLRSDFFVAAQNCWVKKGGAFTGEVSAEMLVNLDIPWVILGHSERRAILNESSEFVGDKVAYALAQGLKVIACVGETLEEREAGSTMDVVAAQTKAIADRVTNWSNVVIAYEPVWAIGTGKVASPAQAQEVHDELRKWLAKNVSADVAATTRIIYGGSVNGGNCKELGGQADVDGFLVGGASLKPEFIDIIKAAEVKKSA
T2 sequence (P48491 whole entry): as the sequence (P48491 whole entry C13S) above, with S13C counted along it

- pIC50 [1]: 6.90
- % decrease of activity at 31.25 nM [2]: 90%
- remaining activity at 0.125 µM [3]: 70%
- pIC50 [4]: < 5.00
Compound: CSS(C)(=O)=O [MMTS]
- % activity remaining (dose curve) [5]: Mutation pdTPI-C89S is more susceptible to MMTS inhibition
